Source: patent US11931368B2, “Glucocorticoid “nintedanib” particles and their use” (CRITITECH, INC., priority 2017, dated 2024)

What was measured:
[1] = Particle size distribution (volume, laser-light diffraction); format: physicochemical
Text: The particle size of the particles of all aspects disclosed herein can be determined by a particle size analyzer instrument and the measurement is expressed as the mean diameter based on a volume distribution (volume). A suitable particle size analyzer instrument is one which employs the analytical technique of […]. A suitable laser-light diffraction particle size analyzer instrument is the Mastersizer, such as the Mastersizer 3000, available from Malvern Instruments, United Kingdom.

[2] = Specific surface area by BET isotherm; format: physicochemical
Procedure: As used herein, the “specific surface area” (SSA) is the total surface area of the particle per unit of compound mass as measured by the Brunauer-Emmett-Teller (“BET”) isotherm by the following method: a known mass between 200 and 300 mg of the analyte is added to a 30 mL sample tube. The loaded tube is then mounted to a Porous Materials Inc. SORPTOMETER®, model BET-202A. The automated test is then carried out using the BETWIN® software package and the surface area of each sample is subsequently calculated. Such an increase in SSA results in significant increases in dissolution rates in relevant media as compared to therapeutic particles produced by conventional means. The “therapeutic particles” can include both agglomerated therapeutic particles and non-agglomerated therapeutic particles; since the SSA is determined on a per gram basis it takes into account both agglomerated and non-agglomerated therapeutic particles in the composition. The BET specific surface area test procedure is a compendial method included in both the United States Pharmaceopeia and the European Pharmaceopeia.

Dv10 [1] [μm] | Dv50 [1] [μm] | Dv90 [1] [μm] | SSA (specific surface area) [2] [m^2/g] | SMILES
10.9 | 39.0 | 74.4 | 4.11 | CCC(=O)O[C@]1(C(=O)SCF)[C@H](C)C[C@H]2[C@@H]3C[C@H](F)C4=CC(=O)C=C[C@]4(C)[C@@]3(F)[C@@H](O)C[C@@]21C [Raw fluticasone, fluticasone propionate]
10.5 | 36.8 | 70.2 | 4.11 | COC(=O)c1ccc2c(c1)NC(=O)/C2=C(\Nc1ccc(N(C)C(=O)CN2CCN(C)CC2)cc1)c1ccccc1 [Raw nintedanib, nintedanib]
